Assay results: patent publication US10590105B2, “1,3-dihydroxy-phenyl derivatives useful as immunomodulators” (BRISTOL-MYERS SQUIBB COMPANY, priority 2016, dated 2020)
pIC50: −log10 of the molar value.

These compounds were tested against PD-1/PD-L1 interaction (PD-1-Ig / PD-L1-His) (Homo sapiens (Human), UniProt Q9NZQ7) (assay: PD-1/PD-L1 Homogenous Time-Resolved Fluorescence (HTRF) binding assay). Conditions: PD-1/PD-L1 HTRF binding assay; value given as number; read-out: Range or IC50.
Source text: The ability of the compounds of formula (I) to bind to PD-L1 was investigated using a PD-1/PD-L1 Homogenous Time-Resolved Fluorescence (HTRF) binding assay.
Homogenous Time-Resolved Fluorescence (HTRF) Binding Assay.
The interaction of PD-1 and PD-L1 can be assessed using soluble, purified preparations of the extracellular domains of the two proteins. The PD-1 and PD-L1 protein extracellular domains were expressed as fusion proteins with detection tags, for PD-1, the tag was the Fc portion of Immunoglobulin (PD-1-Ig) and for PD-L1 it was the 6 histidine motif (PD-L1-His). All binding studies were performed in an HTRF assay buffer consisting of dPBS supplemented with 0.1% […] bovine serum albumin and 0.05% (v/v) Tween-20. For the h/PD-L1-His binding assay, inhibitors were pre-incubated with PD-L1-His (10 nM final) for 15 m in 4 μl of assay buffer, followed by addition of PD-1-Ig (20 nM final) in 1 μl of assay buffer and further incubation for 15 m. HTRF detection was achieved using europium crypate-labeled anti-Ig (1 nM final) and allophycocyanin (APC) labeled anti-His (20 nM final). Antibodies were diluted in HTRF detection buffer and 5 μl was dispensed on top of the binding reaction. The reaction mixture was allowed to equilibrate for 30 minutes and the resulting signal (665 nm/620 nm ratio) was obtained using an EnVision fluorometer. Additional binding assays were established between the human proteins PD-1-Ig/PD-L2-His (20 & 5 nM, respectively) and CD80-His/PD-L1-Ig (100 & 10 nM, respectively).
Recombinant Proteins. Human PD-1 (25-167) with a C-terminal human Fc domain of immunoglobulin G (Ig) epitope tag [hPD-1 (25-167)-3S-IG] and human PD-L1 (18-239) with a C-terminal His epitope tag [hPD-L1(18-239)-TVMV-His] were expressed in HEK293T cells and purified sequentially by ProteinA affinity chromatography and size exclusion chromatography. Human PD-L2-His and CD80-His was obtained through commercial sources.
Ranges are as follows: A=0.001 to 0.010 micromolar; B=0.011 to 0.150 micromolar; C=0.151 to 10 micromolar.

Chain of PD-1/PD-L1 interaction (PD-1-Ig / PD-L1-His) (Q9NZQ7 other isoform, or with tags, fused parts or gaps): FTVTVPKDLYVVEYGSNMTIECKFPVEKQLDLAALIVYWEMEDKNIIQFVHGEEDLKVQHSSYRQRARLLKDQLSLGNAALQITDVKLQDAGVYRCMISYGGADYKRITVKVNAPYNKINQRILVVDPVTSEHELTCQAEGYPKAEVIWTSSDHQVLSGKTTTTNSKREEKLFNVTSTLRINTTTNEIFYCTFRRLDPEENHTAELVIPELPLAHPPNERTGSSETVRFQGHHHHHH

| Compound | pIC50 |
| --- | --- |
| Cc1c(COc2cc(OCc3cncc(C#N)c3)c(CN[C@](C)(CO)C(=O)O)cc2Cl)cccc1-c1ccc2[nH]cnc2c1 [Example 1024, (R)-2-((4-((3-(1H-benzo[d]imidazol-5-yl)-2-methylbenzyl)oxy)-5-chloro-2-((5-cyanopyridin-3-yl)methoxy)benzyl)amino)-3-hydroxy-2-methylpropanoic acid] | 6.87 |

Same assay, conditions: PD-1/PD-L1 HTRF binding assay; value given as range class; read-out: Range or IC50

| Compound | pIC50 |
| --- | --- |
| Cc1c(COc2cc(OCc3cncc(C#N)c3)c(CN3CCCC[C@@H]3C(=O)O)cc2Cl)cccc1-c1ccc2nccnc2c1 [Example 1033, (R)-1-(5-chloro-2-((5-cyanopyridin-3-yl)methoxy)-4-((2-methyl-3-(quinoxalin-6-yl)benzyl)oxy)benzyl)piperidine-2-carboxylic acid] | 6.82 to 7.96 |
| Cc1c(COc2cc(OCc3cncc(C#N)c3)c(CN[C@@](C)(CO)C(=O)O)cc2Cl)cccc1-c1cccn(CCCN2CC[C@@H](O)C2)c1=O [Example 1037, (S)-2-((5-chloro-2-((5-cyanopyridin-3-yl)methoxy)-4-((3-(1-(3-((R)-3-hydroxypyrrolidin-1-yl)propyl)-2-oxo-1,2-dihydropyridin-3-yl)-2-methylbenzyl)oxy)benzyl)amino)-3-hydroxy-2-methylpropanoic acid] | 5.00 to 6.82 |
| Cc1c(COc2cc(OCc3cncc(C#N)c3)c(CN3CCCC[C@H]3C(=O)O)cc2Cl)cccc1-c1ccc2ocnc2c1 [Example 1041, (S)-1-(4-((3-(benzo[d]oxazol-5-yl)-2-methylbenzyl)oxy)-5-chloro-2-((5-cyanopyridin-3-yl)methoxy)benzyl)piperidine-2-carboxylic acid] | 8.00 to 9.00 |
| Cc1c(COc2cc(OCc3cncc(C#N)c3)c(CNC(C)(C)C(=O)O)cc2Cl)cccc1-c1ccc2ncoc2c1 [Example 1016, 2-((4-((3-(benzo[d]oxazol-6-yl)-2-methylbenzyl)oxy)-5-chloro-2-((5-cyanopyridin-3-yl)methoxy)benzyl)amino)-2-methylpropanoic acid] | 8.00 to 9.00 |
| Cc1c(COc2cc(OCc3cncc(C#N)c3)c(CN[C@](C)(CO)C(=O)O)cc2Cl)cccc1-c1cnc2ccccc2c1 [Example 1002, (R)-2-((5-chloro-2-((5-cyanopyridin-3-yl)methoxy)-4-((2-methyl-3-(quinolin-3-yl)benzyl)oxy)benzyl)amino)-3-hydroxy-2-methylpropanoic acid] | 5.00 to 6.82 |
| Cc1c(COc2cc(OCc3cncc(C#N)c3)c(CN3CCC[C@@]3(C)C(=O)O)cc2Cl)cccc1-c1ccc2ccoc2c1 [Example 1020, (S)-1-(4-((3-(benzofuran-6-yl)-2-methylbenzyl)oxy)-5-chloro-2-((5-cyanopyridin-3-yl)methoxy)benzyl)-2-methylpyrrolidine-2-carboxylic acid] | 8.00 to 9.00 |
| Cc1c(COc2cc(OCc3cncc(C#N)c3)c(C=O)cc2Cl)cccc1-c1ccc2oc(CCN3CC[C@@H](O)C3)nc2c1 [Example 1027, (R)-5-((4-chloro-2-formyl-5-((3-(2-(2-(3-hydroxypyrrolidin-1-yl)ethyl)benzo[d]oxazol-5-yl)-2-methylbenzyl)oxy)phenoxy)methyl)nicotinonitrile] | 5.00 to 6.82 |
| Cc1c(COc2cc(OCc3cncc(C#N)c3)c(CN[C@](C)(CO)C(=O)O)cc2Cl)cccc1-c1cc2ccccc2cn1 [Example 1007, (R)-2-((5-chloro-2-((5-cyanopyridin-3-yl)methoxy)-4-((3-(isoquinolin-3-yl)-2-methylbenzyl)oxy)benzyl)amino)-3-hydroxy-2-methylpropanoic acid] | 5.00 to 6.82 |
| Cc1c(COc2cc(OCc3cncc(C#N)c3)c(CN[C@@H](CO)C(=O)O)cc2Cl)cccc1-c1cccn(CCCN2CC[C@@H](O)C2)c1=O [Example 1040, (S)-2-((5-chloro-2-((5-cyanopyridin-3-yl)methoxy)-4-((3-(1-(3-((R)-3-hydroxypyrrolidin-1-yl)propyl)-2-oxo-1,2-dihydropyridin-3-yl)-2-methylbenzyl)oxy)benzyl)amino)-3-hydroxypropanoic acid] | 5.00 to 6.82 |
| Cc1c(COc2cc(OCc3cncc(C#N)c3)c(CN[C@](C)(CO)C(=O)O)cc2Cl)cccc1-c1cccn(CCCN2CC[C@@H](O)C2)c1=O [Example 1038, (R)-2-((5-chloro-2-((5-cyanopyridin-3-yl)methoxy)-4-((3-(1-(3-((R)-3-hydroxypyrrolidin-1-yl)propyl)-2-oxo-1,2-dihydropyridin-3-yl)-2-methylbenzyl)oxy)benzyl)amino)-3-hydroxy-2-methylpropanoic acid] | 5.00 to 6.82 |
| Cc1c(COc2cc(OCc3cncc(C#N)c3)c(CN[C@](C)(CO)C(=O)O)cc2Cl)cccc1-c1ccc2ccccc2n1 [Example 1004, (R)-2-((5-chloro-2-((5-cyanopyridin-3-yl)methoxy)-4-((2-methyl-3-(quinolin-2-yl)benzyl)oxy)benzyl)amino)-3-hydroxy-2-methylpropanoic acid] | 5.00 to 6.82 |
| Cc1c(COc2cc(OCc3cncc(C#N)c3)c(CN[C@](C)(CO)C(=O)O)cc2Cl)cccc1-c1ccc2ncoc2c1 [Example 1017, (R)-2-((4-((3-(benzo[d]oxazol-6-yl)-2-methylbenzyl)oxy)-5-chloro-2-((5-cyanopyridin-3-yl)methoxy)benzyl)amino)-3-hydroxy-2-methylpropanoic acid] | 6.82 to 7.96 |

Now from value to compound:

| pIC50 | Compound |
| --- | --- |
| 8.00 to 9.00 | Cc1c(COc2cc(OCc3cncc(C#N)c3)c(CNC(C)(CO)CO)cc2Cl)cccc1-c1nccc(OCCCO)c1Cl [Example 2004, 5-((4-chloro-5-((3-(3-chloro-4-(3-hydroxypropoxy)pyridin-2-yl)-2-methylbenzyl)oxy)-2-(((1,3-dihydroxy-2-methylpropan-2-yl)amino)methyl)phenoxy)methyl)nicotinonitrile] |
| 5.00 to 6.82 | Cc1nn(-c2cccc(COc3cc(OCc4cncc(C#N)c4)c(CNCCN4CC[C@@H](O)C4)cc3Cl)c2C)c(C)c1CNCCN1CC[C@@H](O)C1 [Example 2006, 5-((4-chloro-2-(((2-((R)-3-hydroxypyrrolidin-1-yl)ethyl)amino)methyl)-5-((3-(4-(((2-((R)-3-hydroxypyrrolidin-1-yl)ethyl)amino)methyl)-3,5-dimethyl-1H-pyrazol-1-yl)-2-methylbenzyl)oxy)phenoxy)methyl)nicotinonitrile] |
| 8.00 to 9.00 | Cc1c(OCCCN2CCCCC2)cccc1-c1ccnc(COc2cc(OCc3cncc(C#N)c3)c(CN[C@@](C)(CO)C(=O)O)cc2Cl)c1C [Example 2015, (S)-2-((5-chloro-2-((5-cyanopyridin-3-yl)methoxy)-4-((3-methyl-4-(2-methyl-3-(3-(piperidin-1-yl)propoxy)phenyl)pyridin-2-yl)methoxy)benzyl)amino)-3-hydroxy-2-methylpropanoic acid] |
| 6.82 to 7.96 | Cc1c(OCCCN2CC[C@@H](O)C2)cccc1-c1ccnc(COc2cc(OCc3cncc(C#N)c3)c(CN3CCCC[C@H]3C(=O)O)cc2Cl)c1C [Example 2011, (S)-1-(5-chloro-2-((5-cyanopyridin-3-yl)methoxy)-4-((4-(3-(3-((R)-3-hydroxypyrrolidin-1-yl)propoxy)-2-methylphenyl)-3-methylpyridin-2-yl)methoxy)benzyl)piperidine-2-carboxylic acid] |
| 5.00 to 6.82 | Cc1nn(CCCCN2CC[C@H](O)C2)c(C)c1-c1cccc(COc2cc(OCc3cncc(C#N)c3)c(CN[C@](C)(CO)C(=O)O)cc2Cl)c1C [Example 2003, (R)-2-((5-chloro-2-((5-cyanopyridin-3-yl)methoxy)-4-((3-(1-(4-((S)-3-hydroxypyrrolidin-1-yl)butyl)-3,5-dimethyl-1H-pyrazol-4-yl)-2-methylbenzyl)oxy)benzyl)amino)-3-hydroxy-2-methylpropanoic acid] |
| 8.00 to 9.00 | Cc1c(COc2cc(OCc3cncc(C#N)c3)c(CNC(C)(CO)CO)cc2Cl)cncc1-c1cccc(OCCCN2CC[C@@H](O)C2)c1C [Example 2008, (R)-5-((4-chloro-2-(((1,3-dihydroxy-2-methylpropan-2-yl)amino)methyl)-5-((5-(3-(3-(3-hydroxypyrrolidin-1-yl)propoxy)-2-methylphenyl)-4-methylpyridin-3-yl)methoxy)phenoxy)methyl)nicotinonitrile] |
| 5.00 to 6.82 | 2-((5-chloro-2-((5-cyanopyridin-3-yl)methoxy)-4-((3-(1-(2-(dimethylamino)ethyl)-1H-benzo[d]imidazol-6-yl)-2-methylbenzyl)oxy)benzyl)amino)-2-methylpropanoic acid and 2-((5-chloro-2-((5-cyanopyridin-3-yl)methoxy)-4-((3-(1-(2-(dimethylamino)ethyl)-1H-benzo[d]imidazol-5-yl)-2-methylbenzyl)oxy)benzyl)amino)-2-methylpropanoic acid [Example 1026] |
